Assays:
TbCatB = biological target: T1, TbCatB (Trypanosoma brucei, UniProt Q6R7Z5); test: TbCatB protease inhibition assay (Z-Phe-Arg-AMC); assay type: biochemical
T1 construct: made in house
T1 sequence (Q6R7Z5 23-340): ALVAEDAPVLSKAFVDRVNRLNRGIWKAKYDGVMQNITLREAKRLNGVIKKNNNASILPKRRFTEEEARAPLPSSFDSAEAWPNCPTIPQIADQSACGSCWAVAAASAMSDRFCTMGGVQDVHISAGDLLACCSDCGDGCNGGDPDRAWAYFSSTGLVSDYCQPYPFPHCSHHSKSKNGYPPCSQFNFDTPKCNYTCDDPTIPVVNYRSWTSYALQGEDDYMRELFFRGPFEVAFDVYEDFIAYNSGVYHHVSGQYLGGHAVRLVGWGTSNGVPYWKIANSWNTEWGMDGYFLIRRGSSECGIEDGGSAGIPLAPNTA
Protocol: (§1) Recombinant cruzain, rhodesain, TbCatB, falcipain-2 and falcipain-3 were expressed as described previously, [39], [40], [41], [42]. Inhibitor stock solutions were prepared in DMSO and screened at 0.1 µM for cruzain and rhodesain, 1 µM for TbCatB and 50 nM for falcipain-3 (0.5% DMSO in assay). […] Protease inhibition assays for cruzain and rhodesain were carried out in 96 well plate format as described previously. Cruzain (4 nM), rhodesain (4 nM) or TbCatB (258 nM) was incubated with test compound in 100 mM sodium acetate, pH 5.5, containing 5 mM DTT and 0.01% Triton X-100 (buffer A), for 5 min at room temperature (the higher concentration of TbCatB was required due to its lower intrinsic activity against the fluorogenic substrate). Then buffer A containing Z-Phe-Arg-AMC (Bachem) was added to enzyme-compound mixture to give 10 µM substrate in a final assay volume of 200 µL. The rate of free AMC release was measured at excitation and emission wavelengths of 355 and 460 nm, respectively, with a microtiter plate spectrofluorimeter (SpectraMax M5, Molecular Devices) for 3 min. Percentage inhibition of test compound was calculated relative to the DMSO control (0% inhibition control). IC50 values were determined with Prism 4 software (GraphPad, San Diego, CA) using sigmoidal dose-response variable slope model.

[1] = Jurkat cell cytotoxicity assay; assay type: cell-based; conditions: human, Jurkat cells (clone E6-1), read-out: Cytotoxicity (% inhibition at 10 µM) Jurkat cells
Protocol: Jurkat cells (clone E6-1) were grown in complete RPMI-1640 medium containing 10% FBS, 50 U/mL penicillin and 50 µg/mL streptomycin (Invitrogen) at 37°C under a humidified atmosphere and 5% CO2. For cytotoxicity testing, cells were diluted to 1×10^5 per ml in complete RPMI-1640 medium. Test compound stocks were prepared in 100% DMSO and screened at 10 µM against cells (1×10^4 cells per well) in sterile Greiner 96-well flat white opaque culture plates (0.5% final DMSO concentration). The 0% inhibition control wells contained 0.5% DMSO while 100% inhibition control wells contained 40 µM staurosporine. After compound addition, plates were incubated for 40 hr at 37°C. At the end of the incubation period, 50 µL of CellTiter-Glo™ reagent (Promega Inc., Madison, WI, USA) was added to each well and plates were placed on an orbital shaker at room temperature for 2 min to induce lysis. After a further 10 min incubation without shaking to stabilize the signal, the ATP-bioluminescence of each well was determined using an Analyst HT plate reader (Molecular Devices, Sunnyvale, CA, USA). Calculations of percentage inhibition and IC50 were performed similar to those in the T. brucei brucei assay.

[2] = system: W2-strain P. falciparum parasites; test: P. falciparum growth inhibition assay; assay type: cell-based, Plasmodium falciparum; conditions: Plasmodium falciparum; cultured W2 strain, 48 hours; read-out: GI50 P. falc. W2
Protocol: The growth inhibition assay for P. falciparum was conducted as described previously. W2-strain P. falciparum parasites (1% parasitemia, 2% hematocrit) were cultured at 37°C in human red blood cells under the atmosphere of 3% O2, 5% CO2 balance N2 in 0.2 mL of per well in medium RPMI-1640 supplemented with 10% human serum in duplicate 96-well flat bottom culture plates in the presence of inhibitors. Tested compounds were serially diluted 1∶3 in the range 10,000 – 4.6 nM, with maximum DMSO concentration of 0.1%. Following 48 hours of incubation, the medium was removed and the cells were fixed in 2% formaldehyde in PBS. Parasite growth was evaluated by flow cytometry on a FACsort (Becton Dickinson) equipped with AMS-1 loader (Cytek Development) after staining with 1 nM DNA dye YOYO-1(Molecular Probes) in 100 mM NH4Cl, 0.8% NaCl. Parasitemias were determined from dot plots (forward scatter vs. fluorescence) using […] software (Becton Dickinson). IC50 values for growth inhibition were determined from plots of percentage control parasitemia over inhibitor concentration using GraphPad Prism software.

human cathepsin L = biological target: human cathepsin L; set-up: method as in data provided by Celera Genomics; conditions: historical data; ref data provided by Celera Genomics; read-out: Ki catL; cited from earlier work
cruzain = biological target: T2, cruzain (Trypanosoma cruzi, UniProt P25779); test: Cruzain protease inhibition assay (Z-Phe-Arg-AMC); assay type: biochemical
T2 construct: made in house
T2 sequence (P25779 123-467): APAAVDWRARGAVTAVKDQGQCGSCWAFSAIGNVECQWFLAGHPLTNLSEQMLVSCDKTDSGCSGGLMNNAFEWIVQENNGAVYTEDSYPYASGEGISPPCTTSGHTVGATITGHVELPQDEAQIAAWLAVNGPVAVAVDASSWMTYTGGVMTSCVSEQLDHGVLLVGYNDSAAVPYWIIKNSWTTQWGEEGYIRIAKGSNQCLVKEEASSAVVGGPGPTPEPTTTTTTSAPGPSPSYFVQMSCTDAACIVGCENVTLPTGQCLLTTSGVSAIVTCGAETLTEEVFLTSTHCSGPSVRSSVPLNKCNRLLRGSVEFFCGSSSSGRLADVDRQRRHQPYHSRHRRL
Protocol: as §1

[3] = system: intracellular T. cruzi (CA-I/72) in BESM cells; test: T. cruzi amastigote growth inhibition assay; assay type: cell-based; conditions: Trypanosoma cruzi; infected BESM cells, 72 hours
Protocol: The growth inhibition assay for the intracellular T. cruzi was conducted in 96-well plate format as described previously. Briefly, bovine embryo skeletal muscle (BESM) cells (2×10^3/well), seeded overnight, were infected with CA-I/72 T. cruzi trypomastigotes (2×10^3/well). Sixteen hours post-infection, test compounds (serial dilution concentrations starting from 20 µM) were added and assay plates were incubated for an additional 72 hours at 37°C with 5% CO2. Cells were then washed once in PBS, fixed with 4% paraformaldehyde and stained with DNA fluorescent dye DAPI (4′ 6-diamidino-2-phenylindole). The assay plates were then imaged in the IN Cell Analyzer 2000 (GE Healthcare) with the excitation and emission filters set of 350 nm and 460 nm, respectively, to detect DAPI signals. The feature extraction module in IN Cell Developer Toolbox 1.7 software was used to count host nuclei and parasite kinetoplasts by size difference.

CCCCC(NC(=O)C(Cc1ccccc1)NC(=O)N1CCOCC1)C(=O)c1nc2ccccc2o1 (stereo not drawn) [Compound 19b]
IC50 (TbCatB): 600 nM
cytotoxicity at 40 h, 10 µM [1]: < 5%
GI50 [2]: 2900 nM
Ki (human cathepsin L): 180 nM
IC50 (cruzain): 4 nM
GI50 [3]: 10900 nM

CCCCC(NC(=O)C(CC(C)C)NC(=O)N1CCOCC1)C(=O)c1nc2ccccc2o1 (stereo not drawn) [Compound 19a]
IC50 (TbCatB): 1000 nM
cytotoxicity at 40 h, 10 µM [1]: < 5%
GI50 [2]: 1200 nM
Ki (human cathepsin L): 26 nM
IC50 (cruzain): 1 nM
GI50 [3]: 20000 nM

Reference: article PMC3086806, “Mining a Cathepsin Inhibitor Library for New Antiparasitic Drug Leads” (PLoS Neglected Tropical Diseases, 2011)
